# Where a SMILES comes first, the peptide text is derived from it. The star is where a group is joined. Cbz = O=C(OCc1ccccc1)*
# Test system: 26S proteasome-mediated degradation of SP28
# Type: cell-based
smiles,measurement,value
CC(C)C[C@@H](C=O)NC(=O)[C@H](CC(C)C)NC(=O)[C@H](CC(C)C)NC(=O)OCc1ccccc1 [MG132] (Cbz-Leu-Leu-Leu-aldehyde),Stability of SP28 C173A/H199A mutant in cells,"also stabilized by MG132, although to a much lesser extent"
same,Stability of wild-type SP28 in cells,remarkably enhanced stability of wild-type SP28

# Reference: US7132234B2, “Methods and compositions for the identification of anti-poxvirus agents” (priority 2003, dated 2006)
